The results in this text go back to patent US10221173B2, “Chemical compounds” (AstraZeneca AB, priority 2017, dated 2019).

≈ marks a conversion by molar mass, not a printed value. Bounds are passed on as bounds.

Data set [1] concerns the target Estrogen Receptor (ERα) in MCF-7 cells (Homo sapiens (Human), UniProt P03372). The experiment in a line: MCF-7 ER down-regulation assay (immuno-fluorescence). It is filed as cell-based. The settings on record: for % downregulation (in brackets): maximum downregulation.
Data set [2] addresses recombinant human Estrogen Receptor alpha ligand binding domain (ER alpha-LBD (GST)) (Homo sapiens (Human), UniProt P03372). Put plainly: ERα binding assay (LanthaScreen TR-FRET competition). For orientation: In TR-FRET formats the signal depends on donor and acceptor labels being close together.
Data set [3] is described as follows: Log D (shake flask, 1-octanol/aqueous buffer). It is filed as physicochemical. The conditions noted are these: 1-octanol/aqueous buffer, pH 7.4, pH 7.4.
A further data set deals with hERG potassium channel (Homo sapiens (Human), UniProt Q12809).
Data set [4] is described as follows: Human plasma protein binding (equilibrium dialysis). It is filed as in vitro ADME. Background: In equilibrium dialysis only unbound substance equilibrates across the membrane.
Data set [5] is described as follows: Thermodynamic solubility (shake-flask). The conditions noted are these: aqueous phosphate buffer, 25 °C, pH 7.4, aqueous buffer, thermodynamic from solid, phosphate buffer pH 7.4, 24 hours. It is filed as physicochemical.

Chain of hERG potassium channel (Q12809 whole entry): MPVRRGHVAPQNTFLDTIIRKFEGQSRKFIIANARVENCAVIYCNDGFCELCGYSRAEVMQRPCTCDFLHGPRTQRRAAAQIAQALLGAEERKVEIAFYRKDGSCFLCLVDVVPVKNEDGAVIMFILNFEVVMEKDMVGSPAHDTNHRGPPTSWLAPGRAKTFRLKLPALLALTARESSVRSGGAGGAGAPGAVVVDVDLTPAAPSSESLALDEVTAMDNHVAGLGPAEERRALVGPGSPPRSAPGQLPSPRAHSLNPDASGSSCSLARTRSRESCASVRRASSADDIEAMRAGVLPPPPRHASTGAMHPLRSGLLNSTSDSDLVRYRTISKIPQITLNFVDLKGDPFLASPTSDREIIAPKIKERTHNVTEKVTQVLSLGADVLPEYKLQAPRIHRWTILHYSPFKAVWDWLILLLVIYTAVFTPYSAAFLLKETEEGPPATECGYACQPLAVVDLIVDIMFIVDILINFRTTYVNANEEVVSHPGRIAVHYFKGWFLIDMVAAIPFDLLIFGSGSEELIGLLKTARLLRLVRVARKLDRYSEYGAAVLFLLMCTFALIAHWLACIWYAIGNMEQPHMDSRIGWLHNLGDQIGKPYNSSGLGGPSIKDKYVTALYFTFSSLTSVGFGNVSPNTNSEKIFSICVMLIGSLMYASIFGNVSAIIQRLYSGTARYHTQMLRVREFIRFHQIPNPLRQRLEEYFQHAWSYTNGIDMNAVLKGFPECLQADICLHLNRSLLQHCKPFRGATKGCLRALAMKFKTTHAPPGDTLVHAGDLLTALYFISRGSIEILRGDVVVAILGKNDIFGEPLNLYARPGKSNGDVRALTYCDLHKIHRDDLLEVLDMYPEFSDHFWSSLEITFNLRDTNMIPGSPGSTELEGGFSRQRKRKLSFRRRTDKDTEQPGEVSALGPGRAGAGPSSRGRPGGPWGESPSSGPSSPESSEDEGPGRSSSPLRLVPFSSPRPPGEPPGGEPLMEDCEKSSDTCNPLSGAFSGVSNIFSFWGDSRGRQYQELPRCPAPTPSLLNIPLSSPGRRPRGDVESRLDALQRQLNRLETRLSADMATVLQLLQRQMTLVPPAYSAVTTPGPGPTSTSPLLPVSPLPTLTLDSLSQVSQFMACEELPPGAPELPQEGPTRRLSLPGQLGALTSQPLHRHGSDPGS
Chain of Estrogen Receptor (ERα) in MCF-7 cells (P03372 whole entry, the tested form may be a part): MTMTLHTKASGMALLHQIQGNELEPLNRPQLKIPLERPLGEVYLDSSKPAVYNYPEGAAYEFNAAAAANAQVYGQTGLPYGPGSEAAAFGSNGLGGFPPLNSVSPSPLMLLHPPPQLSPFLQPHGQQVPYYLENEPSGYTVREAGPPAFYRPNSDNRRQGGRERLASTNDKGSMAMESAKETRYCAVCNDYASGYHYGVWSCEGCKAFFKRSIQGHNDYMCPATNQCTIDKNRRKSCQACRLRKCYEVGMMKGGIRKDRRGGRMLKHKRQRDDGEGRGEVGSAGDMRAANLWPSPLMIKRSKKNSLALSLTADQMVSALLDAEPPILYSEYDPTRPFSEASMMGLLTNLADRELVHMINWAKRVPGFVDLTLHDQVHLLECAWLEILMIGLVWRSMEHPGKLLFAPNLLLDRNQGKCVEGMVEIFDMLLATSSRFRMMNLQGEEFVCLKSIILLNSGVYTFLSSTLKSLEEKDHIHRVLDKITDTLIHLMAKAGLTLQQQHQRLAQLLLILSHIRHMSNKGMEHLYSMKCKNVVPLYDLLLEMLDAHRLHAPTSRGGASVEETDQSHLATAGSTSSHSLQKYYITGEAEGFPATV
Chain of recombinant human Estrogen Receptor alpha ligand binding domain (ER alpha-LBD (GST)) (P03372 307-554): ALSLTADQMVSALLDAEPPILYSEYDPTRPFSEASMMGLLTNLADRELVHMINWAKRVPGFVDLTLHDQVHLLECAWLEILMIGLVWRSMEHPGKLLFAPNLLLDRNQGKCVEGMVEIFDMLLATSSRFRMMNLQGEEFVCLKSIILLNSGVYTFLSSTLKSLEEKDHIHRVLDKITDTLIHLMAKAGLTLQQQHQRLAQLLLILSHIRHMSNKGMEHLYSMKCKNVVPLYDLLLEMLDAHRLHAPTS

Broadly, the IC50 is the concentration at which inhibition is half-maximal. In general, logD refers to the decadic logarithm of the distribution of all forms, ionised or not, between an organic phase and buffer at a given pH. In general, solubility refers to the concentration that dissolves in the medium under given conditions. Read a low solubility as little dissolved substance. As for `Cc1ccc(OCCNCCCF)c(C)c1[C@@H]1c2[nH]c3ccccc3c2C[C@@H](C)N1CC(F)(F)F` [Example 79, N-(2-(2,4-dimethyl-3-((1R,3R)-3-methyl-2-(2,2,2-trifluoroethyl)-2,3,4,9-tetrahydro-1H-pyrido[3,4-b]indol-1-yl)phenoxy)ethyl)-3-fluoropropan-1-amine], the IC50 in data set [1] was 0.16 nM; in data set [2], 1.4 nM; on hERG potassium channel it was 10 µM. The same compound displayed a log distribution coefficient (logD) in data set [3] of 4.8. In data set [4], the “Human plasma protein binding (% free)” value was less than 0.4 % free. The solubility at 24 h in data set [5] came out at 3.9 µM (≈ 1.92 µg/mL).
As to `COc1ccc(OCCNCCCF)c(F)c1[C@@H]1c2[nH]c3ccccc3c2C[C@@H](C)N1CC(F)(F)CO` [Example 81, 2,2-difluoro-3-((1R,3R)-1-(2-fluoro-3-(2-((3-fluoropropyl)amino)ethoxy)-6-methoxyphenyl)-3-methyl-1,3,4,9-tetrahydro-2H-pyrido[3,4-b]indol-2-yl)propan-1-ol], the results for the IC50 (in data set [1]; in data set [2]; at hERG potassium channel) were 0.17 nM, more than 110 nM and 3.9 µM, respectively. The compound also came in with a logD in data set [3] of 2.6. Besides, the “Human plasma protein binding (% free)” value in data set [4] is recorded as 2.9 % free. This compound showed a solubility at 24 h in data set [5] of 736 µM (≈ 385 µg/mL).
Consider `COc1ccc(OCCNCCCF)c(F)c1[C@@H]1c2[nH]c3ccccc3c2C[C@@H](C)N1CC1(F)CC1` [Example 83, 3-fluoro-N-(2-(2-fluoro-3-((1R,3R)-2-((1-fluorocyclopropyl)methyl)-3-methyl-2,3,4,9-tetrahydro-1H-pyrido[3,4-b]indol-1-yl)-4-methoxyphenoxy)ethyl)propan-1-amine], for which the figures for the IC50 (in data set [1]; in data set [2]; against hERG potassium channel) were 0.28 nM, 1.7 nM and 4 µM, respectively. The “% downregulation (in brackets)” value in data set [1] was 90%. For the same compound, in data set [3], the log distribution coefficient (logD) came to 2.9. Also, the “Human plasma protein binding (% free)” value in data set [4] was 2.5 % free. Further, the solubility at 24 h in data set [5] was 595 µM (≈ 298 µg/mL).
On to `COc1ccc(OCCNCCCF)c(F)c1[C@@H]1c2[nH]c3ccccc3c2C[C@@H](C)N1CC1(F)COC1` [Example 84, 3-fluoro-N-(2-(2-fluoro-3-((1R,3R)-2-((3-fluorooxetan-3-yl)methyl)-3-methyl-2,3,4,9-tetrahydro-1H-pyrido[3,4-b]indol-1-yl)-4-methoxyphenoxy)ethyl)propan-1-amine], for which the IC50 in data set [1] stood at 0.16 nM; in data set [2], 0.94 nM; against hERG potassium channel, 2.8 µM. Also, the “% downregulation (in brackets)” value in data set [1] is 83%. Also, the logD in data set [3] amounted to 2.4. For the same compound, the “Human plasma protein binding (% free)” value in data set [4] is recorded as 6 % free. The compound further returned a solubility at 24 h in data set [5] of 640 µM (≈ 331 µg/mL).
With `C[C@@H]1Cc2c([nH]c3ccccc23)[C@@H](c2c(F)ccc(OCCNCCCF)c2Cl)N1CC(F)(F)CO` [Example 85, 3-((1R,3R)-1-(2-chloro-6-fluoro-3-(2-((3-fluoropropyl)amino)ethoxy)phenyl)-3-methyl-1,3,4,9-tetrahydro-2H-pyrido[3,4-b]indol-2-yl)-2,2-difluoropropan-1-ol], the results for the IC50 (in data set [1]; in data set [2]; on hERG potassium channel) were 0.089 nM, 1.3 nM and 4.2 µM, respectively. Further, the logD in data set [3] turned out to be 3.1. Besides, the “Human plasma protein binding (% free)” value in data set [4] is on record as 1.0 % free. The compound further showed a solubility at 24 h in data set [5] of 224 µM (≈ 118 µg/mL).
Consider `COc1ccc(OCCNCCCF)c(F)c1[C@@H]1c2[nH]c3ccc(F)cc3c2C[C@@H](C)N1CC(F)(F)CO` [Example 86, 2,2-difluoro-3-((1R,3R)-6-fluoro-1-(2-fluoro-3-(2-((3-fluoropropyl)amino)ethoxy)-6-methoxyphenyl)-3-methyl-1,3,4,9-tetrahydro-2H-pyrido[3,4-b]indol-2-yl)propan-1-ol], for which the IC50 in data set [1] stood at 0.17 nM; in data set [2] it was 0.86 nM; against hERG potassium channel, 3.9 µM. This compound also came in with a pH-dependent lipophilicity (logD) in data set [3] of 2.9. Also, the “Human plasma protein binding (% free)” value in data set [4] stood at 2.6 % free. The same compound displayed a solubility at 24 h in data set [5] of 385 µM (≈ 209 µg/mL).
Take `C[C@@H]1Cc2c([nH]c3ccc(F)cc23)[C@@H](c2c(F)ccc(NCCNCCCF)c2F)N1CC(F)(F)CO` [Example 89, 3-((1R,3R)-1-(2,6-difluoro-3-((2-((3-fluoropropyl)amino)ethyl)amino)phenyl)-6-fluoro-3-methyl-1,3,4,9-tetrahydro-2H-pyrido[3,4-b]indol-2-yl)-2,2-difluoropropan-1-ol]: the IC50 was 0.14 nM in data set [1], 0.91 nM in data set [2] and 6.1 µM against hERG potassium channel. Further, in data set [3], the logD is 2.7. In addition, the “Human plasma protein binding (% free)” value in data set [4] was less than 3.4 % free. Moreover, in data set [5], the solubility at 24 h was 670 µM (≈ 354 µg/mL).
On to `COc1cc(F)c(NCCNCCCF)cc1[C@@H]1c2[nH]c3ccccc3c2C[C@@H](C)N1CC(F)(F)F` [Example 91, N1-(2-fluoro-4-methoxy-5-((1R,3R)-3-methyl-2-(2,2,2-trifluoroethyl)-2,3,4,9-tetrahydro-1H-pyrido[3,4-b]indol-1-yl)phenyl)-N2-(3-fluoropropyl)ethane-1,2-diamine], for which the IC50 in data set [1] amounted to 15 nM; in data set [2], 9.4 nM; on hERG potassium channel, 2.6 µM. This compound displayed a logD in data set [3] of 2.9. For the same compound, in data set [4], the “Human plasma protein binding (% free)” value is 0.93 % free. Also, in data set [5], the solubility at 24 h was determined as 280 µM (≈ 143 µg/mL).
Regarding `C[C@@H]1Cc2c([nH]c3ccccc23)[C@@H](c2nccc(NCCNCCCF)c2F)N1CC(F)(F)F` [Example 94, N1-(3-fluoro-2-((1S,3R)-3-methyl-2-(2,2,2-trifluoroethyl)-2,3,4,9-tetrahydro-1H-pyrido[3,4-b]indol-1-yl)pyridin-4-yl)-N2-(3-fluoropropyl)ethane-1,2-diamine], the IC50 worked out at 9.2 nM in data set [1], 3.6 nM in data set [2] and 9.9 µM against hERG potassium channel. In data set [3], the logD was 2.4. Further, the “Human plasma protein binding (% free)” value in data set [4] was 7 % free. For the same compound, the solubility at 24 h in data set [5] was found to be 698 µM (≈ 336 µg/mL).
Take `Cc1c(NCCNCCCF)ccnc1[C@@H]1c2[nH]c3ccccc3c2C[C@@H](C)N1CC(F)(F)F` [Example 95, N1-(3-fluoropropyl)-N2-(3-methyl-2-((1S,3R)-3-methyl-2-(2,2,2-trifluoroethyl)-2,3,4,9-tetrahydro-1H-pyrido[3,4-b]indol-1-yl)pyridin-4-yl)ethane-1,2-diamine]: the IC50 in data set [1] was found to be 3.3 nM; in data set [2] it was 5.6 nM; against hERG potassium channel, 7.2 µM. In data set [3], this compound yielded a logD of 2.5. Moreover, the “Human plasma protein binding (% free)” value in data set [4] is 4.6 % free. Moreover, the solubility at 24 h in data set [5] worked out at 869 µM (≈ 415 µg/mL).
With `C[C@@H]1Cc2c([nH]c3ccccc23)[C@@H](c2ccnc(OCCNCCCF)c2)N1CC(F)(F)F` [Example 102, 3-fluoro-N-(2-((4-((1R,3R)-3-methyl-2-(2,2,2-trifluoroethyl)-2,3,4,9-tetrahydro-1H-pyrido[3,4-b]indol-1-yl)pyridin-2-yl)oxy)ethyl)propan-1-amine], the IC50 in data set [1] was found to be 2.9 nM; in data set [2], 2 nM; at hERG potassium channel, 7.2 µM. The logD in data set [3] was found to be 3.8. Moreover, the “Human plasma protein binding (% free)” value in data set [4] was determined as 1.4 % free. Besides, in data set [5], the solubility at 24 h turned out to be 251 µM (≈ 117 µg/mL).
With `Cc1c([C@@H]2c3[nH]c4ccccc4c3C[C@@H](C)N2CC(F)(F)CO)ccnc1OCCNCCCF` [Example 103, 2,2-difluoro-3-((1R,3R)-1-(2-(2-((3-fluoropropyl)amino)ethoxy)-3-methylpyridin-4-yl)-3-methyl-1,3,4,9-tetrahydro-2H-pyrido[3,4-b]indol-2-yl)propan-1-ol], the IC50 is 0.084 nM in data set [1], 0.56 nM in data set [2] and 4.3 µM against hERG potassium channel. The same compound came in with a logD in data set [3] of 2.9. Further, the “Human plasma protein binding (% free)” value in data set [4] worked out at 2 % free. The solubility at 24 h in data set [5] was 660 µM (≈ 324 µg/mL).
`Cc1ccc(OCCNCCCF)nc1[C@@H]1c2[nH]c3ccccc3c2C[C@@H](C)N1CC(F)(F)F` [Example 105, 3-fluoro-N-(2-((5-methyl-6-((1S,3R)-3-methyl-2-(2,2,2-trifluoroethyl)-2,3,4,9-tetrahydro-1H-pyrido[3,4-b]indol-1-yl)pyridin-2-yl)oxy)ethyl)propan-1-amine]: the IC50 was determined as 39 nM in data set [1], 42 nM in data set [2] and 3.5 µM on hERG potassium channel. In addition, in data set [3], the logD is 3.4. For the same compound, in data set [4], the “Human plasma protein binding (% free)” value came out at 1 % free. In data set [5], this compound yielded a solubility at 24 h of 136 µM (≈ 65.1 µg/mL).
For the compound `C[C@@H]1Cc2c([nH]c3ccccc23)[C@@H](c2c(F)cnc(OCCNCCCF)c2F)N1CC1(F)CC1` [Example 108, N-(2-((3,5-difluoro-4-((1R,3R)-2-((1-fluorocyclopropyl)methyl)-3-methyl-2,3,4,9-tetrahydro-1H-pyrido[3,4-b]indol-1-yl)pyridin-2-yl)oxy)ethyl)-3-fluoropropan-1-amine], the IC50 amounted to 0.3 nM in data set [1], 1 nM in data set [2] and 6 µM against hERG potassium channel. This compound came in with a logD in data set [3] of 3.2. In data set [4], the “Human plasma protein binding (% free)” value came out at 2.3 % free. This compound also returned a solubility at 24 h in data set [5] of 375 µM (≈ 184 µg/mL).
Regarding `COc1nnc(OCCNCCCF)cc1[C@@H]1c2[nH]c3ccccc3c2C[C@@H](C)N1CC(F)(F)F` [Example 112, 3-fluoro-N-(2-((6-methoxy-5-((1R,3R)-3-methyl-2-(2,2,2-trifluoroethyl)-2,3,4,9-tetrahydro-1H-pyrido[3,4-b]indol-1-yl)pyridazin-3-yl)oxy)ethyl)propan-1-amine], the IC50 in data set [1] is 0.95 nM; in data set [2] it was 2 nM; against hERG potassium channel, 19 µM. The compound also gave a logD in data set [3] of 3.2. Besides, in data set [4], the “Human plasma protein binding (% free)” value is 1.5 % free. The same compound yielded a solubility at 24 h in data set [5] of 92 µM (≈ 45.6 µg/mL).
